The text below walks through data of PMC9252919, “Controlled masking and targeted release of redox-cycling ortho-quinones via a C–C bond-cleaving 1,6-elimination” (Nature Chemistry, 2022).

Test [1] has as its system AML cell line MOLM-13. Description: Viability assay with small-molecule prodrugs, MOLM-13. The conditions noted are these: MOLM-13. The class given is cell-based. As to the method:
(§1) For assays assessing cytotoxicity of β-lapachone versus small-molecule prodrugs, antibodies and ADCs, suspension cells were plated into 24-well plates at a density of 2.5 × 10^5 cells ml^−1 in 240 µl. Stocks of ADC or antibody in PBS were normalized to 12.5 µM. Serial dilutions of compound were made up in PBS. Then, 60 µl of each stock of either PBS or compound in PBS was added to the cells to achieve the desired final concentration. After the specified incubation time, toxicity was assessed by counting of live cells using the trypan blue exclusion method with a Countess II Automated Cell Counter (ThermoFisher Scientific) according to the manufacturer’s instructions. Cell viability was determined by dividing the average live cell number of treated wells by the average live cell number for control wells treated with PBS only. IC50 values were calculated using GraphPad Prism software. Note: for the assay performed over 96 h, 5% human serum was added to media instead of 10% fetal bovine serum, to limit non-specific antibody internalisation. This had little effect on ADC toxicity.

The subject of test [2] is CD33+ HL-60 cells. Description: Viability assay with small-molecule prodrugs and ADCs, HL-60. It is filed as cell-based, human. As to the method: as §1
Test [3] concerns HL-60 cells. Kind of test: Lysosomal deacidification and inhibition assay. The class given is cell-based, human. Conditions: HL-60. As to the method: Assays to assess the effect of lysosomal activity on prodrugs were performed as follows: HL-60 cells were plated into 96-well plates at a concentration of 2.5 × 10^5 cells ml^−1 in 180 µl media. Cells were treated with 10 µl of a stock of NH4Cl in PBS (to obtain an in-plate concentration of 3 or 30 mM), 10 µl of a dilution of a DMSO stock of E64d in PBS (to obtain an in-plate concentration of 30 μM), PBS only or a dilution of DMSO in PBS. Cells were incubated for 30 min. Following this, 10 µl of a stock of test compound made by dilution of a DMSO stock into media was added. DMSO was present in-plate at a maximum of 0.2%. Cells were incubated overnight for 16 h. Following incubation, media was replaced with media containing CellTiter-Blue (Promega) in 1:4 dilution and the plates were incubated for 6 h. The fluorescence of the plates was recorded (excitation, 555 nm; emission, 585 nm; MiniMax i3x Reader, Molecular Devices). Cell viability was calculated by division of the fluorescence intensity of treated wells by that of the average fluorescence intensity of the relevant negative control wells.

Test [4] concerns HEL cells. Kind of test: Viability assay with ADCs, HEL, trypan blue exclusion. The class given is cell-based, human. The conditions noted are these: 96 h. As to the method:
as §1

Take `CC(C)C(NC(=O)OCc1ccccc1)C(=O)NC(CCCNC(N)=O)C(=O)Nc1ccc(CC2(O)C(=O)C3=C(OC(C)(C)CC3)c3ccccc32)cc1` (centres unmarked) [Compound 26]: the “IC50 relative to 1 in MOLM-13” value in test [1] amounted to 10 fold. Moreover, in test [2], the “IC50 relative to 1 in HL-60” value is recorded as 10 fold. In addition, the “toxicity after lysosomal deacidification (NH4Cl) or inhibition (E64d)” value in test [3] is reported as “less toxic”.

B1: Gem-IgG1: native IgG1 antibody containing the variable region of gemtuzumab (antibody, chains of the INN, looked up, V domains shown)
VH: EVQLVQSGAEVKKPGSSVKVSCKASGYTITDSNIHWVRQAPGQSLEWIGYIYPYNGGTDYNQKFKNRATLTVDNPTNTAYMELSSLRSEDTAFYYCVNGNPWLAYWGQGTLVTVSS
VL: DIQLTQSPSTLSASVGDRVTITCRASESLDNYGIRFLTWFQQKPGKAPKLLMYAASNQGSGVPSRFSGSGSGTEFTLTISSLQPDDFATYYCQQTKEVPWSFGQGTKVEVK
modifications: IgG1
notes: native IgG1 antibody containing the variable region of gemtuzumab
On to B1, for which, in test [4] (2.5 µM), the “toxicity to HEL at 2.5 µM” value is recorded as “no toxicity”. Besides, in test [4] (live cell count), the “in vitro toxicity against HEL” value is recorded as “no apparent toxicity”.
